The numbers were not newly measured in patent US20030170332A1, “Flavonoid extract” (Enzo Nutraceuticals Limited., priority 2001, published 2003), which cites them from elsewhere.

One data set relates to DNA damage. Particulars: for Protection against DNA damage: in vivo (Duthie et al. 1997; Sierens et al. 2001).
Data set [1] concerns carbonyl levels of immunoglobulin.

Take `O=c1c(O)c(-c2ccc(O)c(O)c2)oc2cc(O)cc(O)c12` [quercetin]: the “DNA protection on increasing intake in the diet” value in the data set on DNA damage (in vivo (Beatty et al. 2000)) was “did not result in increased DNA protection”. Moreover, the “Protection against DNA damage” value in the data set on DNA damage is listed as “did protect against DNA damage”.

Consider `O=c1c(-c2ccc(O)cc2)coc2cc(O)cc(O)c12` [genistein], for which, in the data set on DNA damage, the “Protection against DNA damage” value is listed as “did protect against DNA damage”.

With `Oc1ccc([C@H]2COc3cc(O)ccc3C2)cc1` [equol], the “Protection against DNA damage” value with DNA damage is on record as “did protect against DNA damage”.

Take `O=c1c(O)c(-c2cc(O)c(O)c(O)c2)oc2cc(O)cc(O)c12` [myricetin]: in the data set with DNA damage, the “Protection against DNA damage” value is reported as “did protect against DNA damage”.

For `O=C1O[C@H]([C@@H](O)CO)C(O)=C1O` [vitamin C], in data set [1] (5 weeks supplementation, 400 mg/day), the “Effect on protein oxidation of immunoglobulin” value is “no significant effect”. Moreover, the “Carbonyl levels of immunoglobulin” value in data set [1] (10 and 15 weeks supplementation, subjects with low baseline ascorbate, not in those with normal base line ascorbate) was “significantly reduced”.
